In BindingDB's records for doi:10.1021/jm049478u (Johnson & Johnson Pharmaceutical Research & Development, 2005):

Target: Glycogen synthase kinase-3 beta (Oryctolagus cuniculus)
Test: Inhibition of rabbit Glycogen synthase kinase-3 beta

IC50: 270 nM
Compound: CN(C)CCCn1nc(C2=C(c3cn(-c4ccccc4)c4ccccc34)C(=O)NC2=O)c2ccccc21 [3-[1-(3-Dimethylamino-propyl)-1H-indazol-3-yl]-4-(1-phenyl-1H-indol-3-yl)-pyrrole-2,5-dione]
